# Values of other authors in article PMC12675671 (Nature Communications, 2025).
# Tested on: WT LRRK2
smiles,measurement,value
COc1cc(C(=O)N2CCC(N3CCN(C)CC3)CC2)ccc1Nc1ncc2c(n1)N(C)c1ccccc1C(=O)N2C [LRRK2-IN-1],"pIC50 (experimental values), WT",8.509
